Key:
zebrafish (ZF) embryos = assay: Zebrafish embryo development and survival after drug plus IR; format: in vivo, Danio rerio
Procedure: ZF were raised in accordance with previously established protocols (McAleer, et al., 2005, J. Radiat. Oncol. Biol. Phys. 61:10-3) at the University of Pennsylvania School of Medicine. Embryos were maintained at 30° C. after transplantation procedures. The age of embryos is indicated as the hours post-fertilization (hpf) and days post-fertilization (dpf) for all experimental data shown. […] Radiat. Oncol. Biol. Phys. 61:10-3) immediately after photography at 24 hpf. […]
The radiosensitizing effects of NS-123 on human cancer cells but not normal cells prompted us to examine the potential of NS-123 in vivo. Zebra fish (ZF) (Danio rerio) embryos provide an unique vertebrate model that is ideal for the screening of therapeutic agents because of their close genetic and physiological homology to upper level vertebrates such as mammals, their rapid embryonic development, optical clarity, and suitability for investigations regarding the effects of radiation and radiosensitizers (Geiger et al., 2006, Cancer Res. 66:8172-8181; McAleer et al., 2005, Int. J. Radiat. Oncol. Biol. Phys. 61:10-13). These features allow the efficient screening of novel drugs and observation of effects on specific organs without the need for euthanization and necroscopy. The ZF embryos were pretreated for 8 hours with 5 μM NS-123 prior to 6 Gy of radiation.

U251 cells = assay: MIT assay, radiosensitizing effects of NS-160; format: cell-based, human; conditions: U251, 8 hour pretreatment, 0.2 μM, IR dose of 4 Gy
Procedure: The dose-dependent radiosensitizing effects of NS-160 were investigated using an 8 hour pretreatment of 0.02 μM, 0.2 μM, and 2.0 μM NS-160 in U251 cells (FIG. 9). […] Therefore, NS-160 can act as a true radiosensitizer at low μM concentrations.

CN[C@@H]1C[C@H]2O[C@@](C)([C@@H]1OC)n1c3ccccc3c3c4c(c5c6ccccc6n2c5c31)C(=O)NC4 [Staurosporine]
embryonic development and viability after IR (zebrafish (ZF) embryos; 5 μM NS-123 (1 μM staurosporine) 8 hours before 6 Gy): greatly diminished the viability and development | morphologic effects in developing ZF with IR (zebrafish (ZF) embryos; drug + IR): morphologic changes consistent with increased toxicity

N#Cc1ccc(Br)c([N+](=O)[O-])c1 [NS-160, 4-bromo-3-nitrobenzonitrile]
radiosensitization (U251 cells): Radiosensitization was evident

— US8541476B2, “Compounds for treatment of malignant tumors” (The Trustees of the University of Pennsylvania, priority 2007, dated 2013)
